# From ChEMBL document CHEMBL4184257, “Design, synthesis and antibacterial evaluation of honokiol derivatives” (2018)
# Activity calls are given as the source filed them. The rule behind the calls is not given here.
# Assays:
# Staphylococcus aureus [1] = test: Antibacterial activity against Staphylococcus aureus ATCC 25923 incubated at 37 degC for 20 hrs by standard broth microdilution method; format: functional; settings: ATCC 25923, 20 h
# Escherichia coli = test: Antibacterial activity against Escherichia coli ATCC 25922 incubated at 37 degC for 20 hrs by standard broth microdilution method; format: functional; settings: ATCC 25922, 20 h
# [2] = tested on: Staphylococcus epidermidis; test: Antibacterial activity against Staphylococcus albus AS1.3374 incubated at 37 degC for 20 hrs by agar dilution method; format: functional; settings: AS1.3374, 20 h
# [3] = tested on: Staphylococcus epidermidis; test: Antibacterial activity against Staphylococcus epidermidis ATCC 12228 incubated at 37 degC for 20 hrs by agar dilution method; format: functional; settings: ATCC 12228, 20 h
# Streptococcus pyogenes = test: Antibacterial activity against Streptococcus pyogenes ATCC 19615 incubated at 37 degC for 20 hrs by agar dilution method; format: functional; settings: ATCC 19615, 20 h
# Staphylococcus aureus [4] = test: Bactericidal activity against Staphylococcus aureus ATCC 25923 at 4 times MIC incubated for 24 hrs by time kill curve assay; format: functional, organism-based
# Staphylococcus aureus [5] = test: Bacteriostatic activity against Staphylococcus aureus ATCC 25923 at 1 times MIC incubated for 24 hrs by time kill curve assay; format: functional, organism-based
# Pseudomonas aeruginosa [6] = test: Antibacterial activity against Pseudomonas aeruginosa ATCC 9027 incubated at 37 degC for 20 hrs by agar dilution method; format: functional; settings: ATCC 9027, 20 h
# Klebsiella pneumoniae [7] = test: Antibacterial activity against Klebsiella pneumoniae ATCC 4352 incubated at 37 degC for 20 hrs by agar dilution method; format: functional; settings: ATCC 4352, 20 h
# Pseudomonas aeruginosa [8] = test: Antibacterial activity against Pseudomonas aeruginosa ATCC 27853 incubated at 37 degC for 20 hrs by agar dilution method; format: functional; settings: ATCC 27853, 20 h
# Pseudomonas aeruginosa [9] = test: Antibacterial activity against Pseudomonas aeruginosa CMCC 10104 incubated at 37 degC for 20 hrs by agar dilution method; format: functional; settings: CMCC 10104, 20 h
# Klebsiella pneumoniae [10] = test: Antibacterial activity against Klebsiella pneumoniae CMCC 46117 incubated at 37 degC for 20 hrs by agar dilution method; format: functional; settings: CMCC 46117, 20 h
# Klebsiella pneumoniae [11] = test: Antibacterial activity against Klebsiella pneumoniae ATCC 700603 incubated at 37 degC for 20 hrs by agar dilution method; format: functional; settings: ATCC 700603, 20 h
# Staphylococcus aureus [12] = test: Induction of cell wall destruction in Staphylococcus aureus ATCC 25923 at 1 times MIC incubated for 0.5 hrs Gram staining based assay; format: functional, organism-based
# Staphylococcus aureus [13] = test: Induction of cell wall destruction in Staphylococcus aureus ATCC 25923 at 4 times MIC incubated for 1 hr Gram staining based assay; format: functional, organism-based
# Staphylococcus aureus [14] = test: Antibacterial activity against Staphylococcus aureus ATCC 33591 incubated at 37 degC for 20 hrs by agar dilution method; format: functional; settings: ATCC 33591, 20 h
# Staphylococcus aureus [15] = test: Antibacterial activity against Staphylococcus aureus ATCC 6538 incubated at 37 degC for 20 hrs by agar dilution method; format: functional; settings: ATCC 6538, 20 h
# Staphylococcus aureus [16] = test: Antibacterial activity against Staphylococcus aureus ATCC 43300 incubated at 37 degC for 20 hrs by agar dilution method; format: functional; settings: ATCC 43300, 20 h
# Enterococcus faecalis [17] = test: Antibacterial activity against Enterococcus faecalis ATCC 33186 incubated at 37 degC for 20 hrs by agar dilution method; format: functional; settings: ATCC 33186, 20 h
# Staphylococcus aureus [18] = test: Antibacterial activity against Staphylococcus aureus ATCC 29213 incubated at 37 degC for 20 hrs by agar dilution method; format: functional; settings: ATCC 29213, 20 h
# Staphylococcus aureus [19] = test: Bacteriostatic activity against Staphylococcus aureus ATCC 25923 assessed as bacterial load at 1 times MIC incubated for 24 hrs by time kill curve assay; format: functional
# Enterococcus faecalis [20] = test: Antibacterial activity against Enterococcus faecalis ATCC 35667 incubated at 37 degC for 20 hrs by agar dilution method; format: functional; settings: ATCC 35667, 20 h
# Staphylococcus aureus [21] = test: Bactericidal activity against Staphylococcus aureus ATCC 25923 assessed as bacterial load at 4 times MIC measured within 2 hrs post dose by time kill curve assay; format: functional
# Staphylococcus aureus [22] = test: Antibacterial activity against Staphylococcus aureus CMCC 26003 incubated at 37 degC for 20 hrs by agar dilution method; format: functional; settings: CMCC 26003, 20 h
compound,measurement,setting,value
C=CCc1cc(CN2CCC(N3CCNCC3)CC2)c(O)c(-c2ccc(O)c(CC=C)c2)c1,MIC90,Staphylococcus aureus [1],32 µg/mL
same,MIC90,Escherichia coli,> 256 µg/mL
CC(=O)NC[C@H]1CN(c2ccc(N3CCOCC3)c(F)c2)C(=O)O1 [LINEZOLID],MIC,[2],2 µg/mL
same,MIC90,Staphylococcus aureus [1],2 µg/mL
same,MIC90,Escherichia coli,> 256 µg/mL
same,MIC,[3],2 µg/mL
same,MIC,Streptococcus pyogenes,0.5 µg/mL
same,Activity,Staphylococcus aureus [4],Active
same,Activity,Staphylococcus aureus [5],Active
C=CCc1cc(CN2CCN(C(C)C)CC2)c(O)c(-c2ccc(O)c(CC=C)c2)c1,MIC90,Staphylococcus aureus [1],> 256 µg/mL
same,MIC90,Escherichia coli,128 µg/mL
NC[C@H]1O[C@H](O[C@H]2[C@H](O)[C@@H](O[C@H]3O[C@H](CO)[C@@H](O)[C@H](N)[C@H]3O)[C@H](N)C[C@@H]2N)[C@H](N)C[C@@H]1O [TOBRAMYCIN],MIC,Pseudomonas aeruginosa [6],0.5 µg/mL
same,MIC,Klebsiella pneumoniae [7],1 µg/mL
same,MIC,Pseudomonas aeruginosa [8],0.25 µg/mL
same,MIC,Pseudomonas aeruginosa [9],2 µg/mL
same,MIC,Klebsiella pneumoniae [10],0.25 µg/mL
same,MIC,Escherichia coli,0.25 µg/mL
same,MIC,Klebsiella pneumoniae [11],4 µg/mL
CN[C@H](CC(C)C)C(=O)N[C@H]1C(=O)N[C@@H](CC(N)=O)C(=O)N[C@H]2C(=O)N[C@H]3C(=O)N[C@H](C(=O)N[C@H](C(=O)O)c4cc(O)cc(O)c4-c4cc3ccc4O)[C@H](O)c3ccc(c(Cl)c3)Oc3cc2cc(c3O[C@@H]2O[C@H](CO)[C@@H](O)[C@H](O)[C@H]2O[C@H]2C[C@](C)(N)[C@H](O)[C@H](C)O2)Oc2ccc(cc2Cl)[C@H]1O [VANCOMYCIN],Activity,Staphylococcus aureus [12],Active
same,MIC90,Staphylococcus aureus [1],1 µg/mL
same,MIC90,Escherichia coli,> 256 µg/mL
same,Activity,Staphylococcus aureus [13],Active
same,Activity,Staphylococcus aureus [4],Active
same,Activity,Staphylococcus aureus [5],Active
C=CCc1cc(CO)c(O)c(-c2ccc(O)c(CC=C)c2)c1,MIC90,Staphylococcus aureus [1],32 µg/mL
same,MIC90,Escherichia coli,> 256 µg/mL
C=CCc1cc(CN2CCC(N3CCC(N)CC3)CC2)c(O)c(-c2ccc(O)c(CC=C)c2)c1,MIC,[2],8 µg/mL
same,Activity,Staphylococcus aureus [12],Active
same,MIC,Staphylococcus aureus [14],8 µg/mL
same,MIC,Pseudomonas aeruginosa [6],64 µg/mL
same,MIC,Staphylococcus aureus [15],8 µg/mL
same,MIC,Staphylococcus aureus [16],8 µg/mL
same,MIC,Staphylococcus aureus [1],8 µg/mL
same,MIC90,Staphylococcus aureus [1],8 µg/mL
same,MIC,Enterococcus faecalis [17],8 µg/mL
same,MIC,Klebsiella pneumoniae [7],8 µg/mL
same,MIC,Pseudomonas aeruginosa [8],64 µg/mL
same,MIC,Pseudomonas aeruginosa [9],64 µg/mL
same,MIC,Staphylococcus aureus [18],8 µg/mL
same,MIC,Klebsiella pneumoniae [10],8 µg/mL
same,Activity,Staphylococcus aureus [19],4 - 5 log10CFU/ml
same,MIC,Enterococcus faecalis [20],8 µg/mL
same,MIC,Escherichia coli,16 µg/mL
same,MIC90,Escherichia coli,16 µg/mL
same,Activity,Staphylococcus aureus [21],0 log10CFU/ml
same,Activity,Staphylococcus aureus [13],Active
same,MIC,Klebsiella pneumoniae [11],64 µg/mL
same,MIC,[3],8 µg/mL
same,MIC,Streptococcus pyogenes,8 µg/mL
same,Activity,Staphylococcus aureus [4],Dose-dependent effect
same,Activity,Staphylococcus aureus [5],Dose-dependent effect
same,MIC,Staphylococcus aureus [22],8 µg/mL
C=CCc1cc(CO)c(O)c(-c2cc(CO)c(O)c(CC=C)c2)c1,MIC90,Staphylococcus aureus [1],64 µg/mL
same,MIC90,Escherichia coli,> 256 µg/mL
